Experimental data published in PMC8509676, “Residual Helicity at the Active Site of the Histidine Phosphocarrier, HPr, Modulates Binding Affinity to Its Natural Partners” (International Journal of Molecular Sciences, 2021).

B1: HPr^9–30 F22A peptide (peptide)
peptide: Ac-GWAEGLHARPASIAVRAATATG-NH2
notes: HPr of Streptomyces coelicolor, residues 9-30, with F22A; source: synthetic peptide, bought: NZYTech (purity >95%)
B2: HPr^sc: intact histidine phosphocarrier protein HPr from Streptomyces coelicolor (O50515) (protein, UniProt O50515 2-93, looked up)
Phosphocarrier protein HPr: AERRVNVGWAEGLHARPASIFVRAATATGVPVTIAKADGSPVNAASMLAVLGLGAQGGEEIVLASDAEGAEAALERLAKLVAEGLEELPETV

Columns and labels:
[1] = target: EI (Streptomyces coelicolor) (UniProt Q9KZP1); assay: ITC; conditions: cited from earlier work
Rsd (Escherichia coli) = Rsd (Escherichia coli) (UniProt C5A0T6); assay: ITC; conditions: cited from earlier work
Rsd^ec [2] = target: T1, Rsd^ec (Escherichia coli, UniProt P0AFX4); assay: Isothermal titration calorimetry (ITC), peptide/Rsd^ec binding; conditions: for ΔH, Rsd^ec: 50 mM Tris pH 7.0
T1 construct: His-tag; made in house; host or cells: E. coli C41
Procedure: The experimental set-up and data processing of ITC experiments has been described previously. Rsd^ec or EIN^sc (at 10–20 µM) were injected into the cell, and the peptides in the syringe (100–200 µM) in 50 mM of Tris buffer, pH 7.0. The temperature for all the experiments was 25 °C. Typically, each calorimetric titration consisted of performing 19 injections with 2 μL volume, with a time spacing of 150 s, while stirring at 750 rpm in an Auto-iTC200 high-sensitivity microcalorimeter (MicroCal, Malvern-Panalytical, Malvern, UK). The results were analysed by applying a model that considered a single binding site (assuming a 1:1 stoichiometry) for the peptide/EIN^sc or peptide/Rsd^ec interaction using a nonlinear least-squares regression analysis in Origin 7.0 (OriginLab, Northampton, MA, USA) with user-defined fitting routines.

EIN^sc = EIN^sc (Streptomyces coelicolor, UniProt Q9KZP1); assay: biochemical; assay type: binding; conditions: fluorescence titration, 3 µM protein, 0-30 µM peptide, 25 °C, 50 mM Tris pH 7.0; uncertainties are fitting errors; repeated three times; read-out: Kd, EIN^sc (fluorescence titration, value in parentheses)
Procedure: (§1) Spectra were collected at 25 °C on a Cary spectrofluorometer (Agilent, Madrid, Spain), with a Peltier temperature controller. The samples were prepared the day before and left overnight at 5 °C. Before measurements, the samples were incubated for 1 h at 25 °C. A quartz cell with a 1 cm path length (Hellma, Kruibeke, Belgium) was used. In all the experiments, the slit widths were equal to 5 nm for both the excitation and emission lights. Protein samples were excited at either 280 or 295 nm. The experiments were performed between 300 and 400 nm. The signal was acquired for 1 s, and the increment of wavelength was set to 1 nm. Appropriate blank corrections were made in all spectra. For the binding experiments, 3 µM of either protein (Rsd^ec or EIN^sc) and 15 µM of the corresponding peptide were mixed. The experiments in aqueous solution were acquired in Tris buffer (50 mM, pH 7.0).
(§2) For the titration between either of the two proteins (Rsd^ec or EIN^sc) and the corresponding peptide, increasing amounts of the latter, in a concentration range of 0 to 30 µM, were added to a solution with a fixed concentration of each protein (3 µM). The experimental set-up was identical to that described above, including preparation of the samples the day before and their storage overnight at 5 °C. Before measurements, the samples were incubated for 1 h at 25 °C. The fluorescence of a blank solution containing only the corresponding peptide was subtracted for each data point. […] The Kd was determined by following the fluorescence at selected wavelengths and fitting experimental data to Equation (1). […] At all used concentrations, the fluorescence was corrected by the inner-filter effects.

Rsd^ec [3] = target: T1, Rsd^ec; assay: Fluorescence titration, peptide/Rsd^ec binding
Procedure: as §1, §2

[4] = test system: Staphylococcus aureus CECT59; assay type: cell-based; conditions: S. aureus CECT59, two-fold broth microdilution (CLSI), MH broth, 24 h, 37 °C; triplicate (sd = 0); highest concentration tested 400 µM
Procedure: The CECT59 strain of the Gram-positive bacteria Staphylococcus aureus from the Spanish Type Culture Collection (Colección Española de Cultivos Tipo, CECT, Universitat de Valencia, Spain) was used for determining its sensitivity to the HPr peptides studied in this work. The MIC for each peptide was determined by the two-fold broth microdilution method according to the Clinical and Laboratory Standards Institute (CLSI) guidelines, with some modifications as previously described. For this testing procedure, a bacteria colony previously grown in MH agar plates was isolated and incubated in MH broth at 37 °C overnight to prepare the bacteria inoculum to be used in each assay. Then, the bacteria suspensions were adjusted to a 100× dilution of an 0.5 McFarland turbidity standard in MH broth and incubated with different concentrations of each peptide in round-bottom 96-well polystyrene plates (Deltalab S.L., Rubí, Spain) (50 μL/well) for 24 h at 37 °C. The peptide concentrations employed comprised two-fold dilutions starting at either 120, 160, or 400 µM, depending on the experiment. […] All assays were performed in triplicate.

[5] = Far-UV CD, helicity from molar ellipticity at 222 nm; assay type: physicochemical; conditions: 5 °C; for [Θ]^222 (value in parentheses): 50 mM Tris pH 7.0; for Helicity (%): 50 mM Tris pH 7.0, from [Θ]^222 assuming −39,500 deg cm^2 dmol^−1 for a fully formed α-helix
Procedure: Spectra were collected on a Jasco J810 spectropolarimeter (Jasco, Tokyo, Japan) interfaced with a Peltier unit. Far-UV measurements were performed with samples placed in quartz cells with a 0.1 cm path length (Hellma, Kruibeke, Belgium), with a response time of 2 s, a band width of 1 nm, and a scan velocity of 50 nm/min. For all peptides, a wide range of concentrations (10–50 µM) was used to determine whether either the shape or the intensity of the spectra was concentration-dependent. None of those features changed in the concentration range explored. The experiments in aqueous solution were acquired at 5 °C in Tris buffer (50 mM, pH 7.0). Raw ellipticity was converted to molar ellipticity, [Θ], from which the fraction of helical populations was determined as previously described. For the experiments in the presence of each protein (repeated three times), the same concentration used in the fluorescence experiments was used, and the experimental set-up was the same as described above for the isolated peptides.

[6] = TFE titration followed by far-UV CD (disordered-helical two-state equilibrium); assay type: physicochemical; conditions: for [TFE]1/2 / m: TFE titration by far-UV CD, 20 µM peptide, two-state fit, fitting errors; for percentage of helical population (in parentheses): from ∆G^water assuming a two-state conformational equilibrium; for ∆G^water: product of m- and [TFE]1/2 values, error propagation
Procedure: For experiments in the presence of TFE, the same set of experimental parameters was used. Cosolvent concentrations were indicated in percentage of volume (%). […] The peptide concentration for these experiments was 20 µM.

[7] = Translational diffusion NMR (DOSY); assay type: physicochemical; conditions: for D (translational diffusion coefficient): DOSY, 10 °C, 100% D2O, 70-120 µM peptide, fitting errors, repeated twice; for Rh (in parentheses, from DOSY): from comparison with the Rh of dioxane (2.12 Å)
Procedure: (b) Translational diffusion NMR (DOSY): Peptide concentrations were the same as those used in the 1D-^1H-NMR spectra. Translational self-diffusion measurements were performed with the pulsed-gradient spin-echo sequence in the presence of 100% D2O. The following relationship existed between the translational self-diffusion coefficient, D, and the delays used during experiment acquisition:(2) I/I0=−exp(DγH2δ^2G^2(Δ−δ/3−τ/2)) where I is the peak intensity of a particular resonance (or a group of them) at any gradient strength; I0 is the maximum peak intensity of the same resonance(s) at the smallest gradient strength (that is, at 2% of the total power of the gradient coil); D is the translational self-diffusion constant (in cm^2 s^−1); δ is the duration (in s) of the gradient; G is the gradient strength (in T cm^−1); ∆ is the time (in s) between the gradients; γH is the gyromagnetic constant of the proton (in rad s^−1 T^−1); and τ is the recovery delay between the bipolar gradients (100 µs in our experiments). The gradient strength (G) was varied in 16 lineal steps, between 2 and 95% of the total power of the gradient coil of the probe. The gradient strength was calibrated by using the value of D for the residual proton water line in a sample containing 100% D2O placed in a 5 mm tube [42]. Data were plotted as I/I0 versus G^2, and the exponential factor of the curve was:(3) DγH2δ^2(Δ−δ/3−τ/2) from which D can be obtained. The duration of the gradient (δ) was 2.25 ms, and the time between the two gradients (∆) was set to 200 ms. The signal from the methyl groups between 1.1 and 0.70 ppm were used for integration of the intensity. A final concentration of 1% of dioxane was added to each peptide; the hydrodynamic radius, Rh, of each peptide was obtained for comparison by assuming that the Rh of dioxane was 2.12 Å [42]. The DOSY experiment was repeated twice with fresh samples for each peptide.

[8] = target: EI EIN (Streptomyces coelicolor) (UniProt Q9KZP1); assay: ITC; conditions: cited from earlier work
[9] = target: T2, Regulator of sigma D from Escherichia coli (Rsd^ec) (E. coli, UniProt P0AFX4 1-158); assay: ITC; Rsd^ec or EIN^sc (10–20 µM) in the cell, peptide (100–200 µM) in the syringe; 50 mM Tris, pH 7.0, 25 °C; single binding-site model, 1:1 stoichiometry assumed; conditions: both partners purified
T2 construct: Rsd (regulator of sigma D), anti-sigma factor of sigma 70, E. coli; 158-residue-long protein; called 'intact Rsd' in the abstract and 'wild-type Rsd vector' in the methods; Vector was a gift from Ann Hochschild; source: E. coli C41, purified as described [24,50]
T2 sequence (looked up): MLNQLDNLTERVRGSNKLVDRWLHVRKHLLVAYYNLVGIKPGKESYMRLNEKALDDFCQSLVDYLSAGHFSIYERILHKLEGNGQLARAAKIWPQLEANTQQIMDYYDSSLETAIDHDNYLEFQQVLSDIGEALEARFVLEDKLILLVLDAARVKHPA

[10] = target: T2, Regulator of sigma D from Escherichia …; assay: other fluorescence titration; peptide 0–30 µM added to 3 µM Rsd^ec or EIN^sc; 50 mM Tris, pH 7.0, 25 °C; samples left overnight at 5 °C; blank of peptide subtracted; conditions: both partners purified
Rsd = target: Rsd; parameters: method as in PMID 24324139; conditions: SPR; read-out: dissociation constant, Rsd-HPr in E. coli; cited from earlier work

Sequence of EI (Streptomyces coelicolor) (Q9KZP1 whole entry): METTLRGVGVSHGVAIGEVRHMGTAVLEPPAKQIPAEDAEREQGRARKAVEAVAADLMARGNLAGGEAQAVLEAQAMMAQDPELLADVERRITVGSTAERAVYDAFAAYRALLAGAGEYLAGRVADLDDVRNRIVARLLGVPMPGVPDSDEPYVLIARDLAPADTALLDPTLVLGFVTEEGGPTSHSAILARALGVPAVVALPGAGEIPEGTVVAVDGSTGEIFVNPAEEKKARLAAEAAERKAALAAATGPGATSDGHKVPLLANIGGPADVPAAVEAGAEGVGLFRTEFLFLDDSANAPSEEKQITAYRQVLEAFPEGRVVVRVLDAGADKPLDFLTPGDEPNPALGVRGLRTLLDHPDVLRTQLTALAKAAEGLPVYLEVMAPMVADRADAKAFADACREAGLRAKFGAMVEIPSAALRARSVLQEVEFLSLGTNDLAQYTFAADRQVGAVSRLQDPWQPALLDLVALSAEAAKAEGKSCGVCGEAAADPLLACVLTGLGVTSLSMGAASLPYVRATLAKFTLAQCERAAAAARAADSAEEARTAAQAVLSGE
Sequence of EI EIN (Streptomyces coelicolor) (Q9KZP1 1-250): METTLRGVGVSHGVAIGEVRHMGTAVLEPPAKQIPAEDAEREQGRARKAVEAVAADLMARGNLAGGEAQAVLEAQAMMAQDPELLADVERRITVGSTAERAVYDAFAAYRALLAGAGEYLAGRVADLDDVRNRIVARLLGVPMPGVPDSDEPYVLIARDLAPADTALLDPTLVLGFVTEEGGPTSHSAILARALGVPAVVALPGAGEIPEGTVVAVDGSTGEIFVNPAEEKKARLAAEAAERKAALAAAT
Sequence of EIN^sc (Q9KZP1 1-230): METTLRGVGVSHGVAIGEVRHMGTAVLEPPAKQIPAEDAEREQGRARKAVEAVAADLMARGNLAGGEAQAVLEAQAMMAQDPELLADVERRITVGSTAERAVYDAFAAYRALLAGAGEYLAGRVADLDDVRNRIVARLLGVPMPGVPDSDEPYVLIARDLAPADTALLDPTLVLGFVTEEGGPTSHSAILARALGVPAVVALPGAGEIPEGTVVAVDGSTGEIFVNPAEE

Molecule | Kd (Rsd (Escherichia coli)) | ΔH, Rsd^ec (Rsd^ec [2]; ITC, 25 °C) | MIC [4] | [Θ]^222 (value in parentheses) [5] | Helicity (%) [5] | [TFE]1/2 [6] | m [6] | percentage of helical population (in parentheses) [6] | ∆G^water [6] | D (translational diffusion coefficient) [7] | Rh (in parentheses, from DOSY) [7] | further results
HPr 9-30 (from UniProt O50515) | 2.5 µM | – | – | – | – | – | – | – | – | – | – | Kd [1]: 230 µM
Ac-GWAEGLHARAASAAARAATATG-NH2 [P18A/I21A/F22A/V23A] | – | 18 ± 2.1 kJ/mol | > 400 µM | −7305.73 deg cm^2 dmol^−1 | 18.4% | 21 ± 1 % (v/v) | 157 ± 26 cal/mol (% (v/v)) | 0.24% | 13.8 ± 2.5 kJ/mol | 1.7 ± 0.1 cm^2 s^−1 × 10^6 | 12 ± 2 Å | Kd (Rsd^ec [2]; ITC, 25 °C, 50 mM Tris pH 7.0, single binding-site model, read-out: Kd, Rsd^ec (ITC)): 5 ± 0.7 µM; Kd (EIN^sc): 11 µM; Kd (Rsd^ec [3]; fluorescence titration, 3 µM protein, 0-30 µM peptide, 25 °C, 50 mM Tris pH 7.0, uncertainties are fitting errors, repeated three times, read-out: Kd, Rsd^ec (fluorescence titration, value in parentheses) (converted)): 10 µM
Ac-GWAEGLHARPASAFVRAATATG-NH2 [Peptide I21A] | – | 4.18 ± 1.7 kJ/mol | > 400 µM | −681.95 deg cm^2 dmol^−1 | 1.7% | 23.8 ± 0.4 % (v/v) | 197 ± 20 cal/mol (% (v/v)) | 0.02% | 19.7 ± 2.1 kJ/mol | 1.9 ± 0.1 cm^2 s^−1 × 10^6 | 11 ± 1 Å | Kd (Rsd^ec [2]): 2.6 ± 0.4 µM; Kd (Rsd^ec [3]): 8 µM
HPr (from UniProt O50515) | 2 µM | – | – | – | – | – | – | – | – | – | – | Kd [8]: 12 µM
B1 | – | – | – | – | – | – | – | – | – | – | – | Kd [9]: 5.9 ± 0.7 µM; dH [9]: 4.6 ± 2.09 kJ/mol; Kd [10]: 11 µM
B2 | – | – | – | – | – | – | – | – | – | – | – | Kd (Rsd): 0.00887 µM
